Data reported in patent publication US20240360148A1 (SUVALENT THERAPEUTICS, INC., priority 2021, published 2024).

How the values were obtained:
SAE1 [1] = target: SAE1 (Homo sapiens (Human), UniProt Q9UBT2); assay: SAE High Throughput Biochemical Assay (HTRF), 15 min preincubation; settings: SAE1 12.5 nM, ATP 100 μM
Procedure, shortened: (§1)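 SAE1 (12.5 nM) was preincubated with compound for 15 min at RT in HEPES pH 7.5, 0.1% BSA, 10 mM MgCl2. The reaction was then started with SUMO-GST and UBC9-His (40 nM each) plus 100 μM ATP for 45 min. After KF stop, HTRF (anti-GST-XL665/anti-His-EuK) was read at 2 h and overnight; some compounds were tested singly at 25 micromolar as percent of control.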

SAE1 [2] = target: SAE1 (Homo sapiens (Human), UniProt Q9UBE0+Q9UBT2); assay: as above; settings: read-out: 15 min preincubation HTRF IC50 (μM) Ave, SAE1 12.5 nM, ATP 100 μM
SAE1 (Homo sapiens (Human), UniProt Q9UBE0+Q9UBT2), sequence (Q9UBE0 whole entry): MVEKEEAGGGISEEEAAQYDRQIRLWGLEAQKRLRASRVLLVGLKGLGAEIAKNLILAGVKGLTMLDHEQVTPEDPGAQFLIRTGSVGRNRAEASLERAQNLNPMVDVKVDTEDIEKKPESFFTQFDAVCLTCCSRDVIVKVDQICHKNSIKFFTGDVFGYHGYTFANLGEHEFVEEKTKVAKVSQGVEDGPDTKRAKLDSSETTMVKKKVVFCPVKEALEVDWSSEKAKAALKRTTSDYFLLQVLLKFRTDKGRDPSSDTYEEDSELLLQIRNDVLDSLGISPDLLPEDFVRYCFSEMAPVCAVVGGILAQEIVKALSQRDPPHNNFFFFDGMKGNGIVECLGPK
SAE1 (Homo sapiens (Human), UniProt Q9UBE0+Q9UBT2), sequence (Q9UBT2 whole entry): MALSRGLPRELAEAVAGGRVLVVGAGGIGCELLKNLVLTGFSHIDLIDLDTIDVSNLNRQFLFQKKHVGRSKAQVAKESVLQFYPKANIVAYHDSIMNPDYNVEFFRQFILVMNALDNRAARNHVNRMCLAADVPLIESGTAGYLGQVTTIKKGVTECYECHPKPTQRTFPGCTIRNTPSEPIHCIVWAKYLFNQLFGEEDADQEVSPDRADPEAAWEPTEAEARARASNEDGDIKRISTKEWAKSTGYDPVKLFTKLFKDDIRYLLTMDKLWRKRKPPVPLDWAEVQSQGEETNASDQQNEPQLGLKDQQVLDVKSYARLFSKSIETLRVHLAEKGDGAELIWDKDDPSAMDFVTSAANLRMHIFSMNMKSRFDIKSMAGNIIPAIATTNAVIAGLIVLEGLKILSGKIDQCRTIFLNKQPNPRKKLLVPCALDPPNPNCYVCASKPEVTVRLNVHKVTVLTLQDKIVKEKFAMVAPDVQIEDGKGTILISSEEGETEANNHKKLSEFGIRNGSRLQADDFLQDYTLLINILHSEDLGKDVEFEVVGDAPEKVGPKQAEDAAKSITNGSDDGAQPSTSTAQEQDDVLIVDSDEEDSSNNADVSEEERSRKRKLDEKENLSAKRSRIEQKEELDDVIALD
Procedure, shortened: as §1

[3] = tested on: sumoylation levels (SUMO 2/3 conjugates) in HCT-116 cells; assay: HCT-116 4 Hour Cell Assay (Western, SUMO 2/3 conjugates); assay type: cell-based; settings: Homo sapiens, HCT-116, 4 h, 4 h treatment, Anti-Sumo 2-3 immunoblot, read-out: HCT-116 Western 4 h IC50 (μM) Ave
Procedure, shortened: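 Cells treated 4 h with 11 three-fold dilutions from 25 μM; lysed in RIPA with NEM and Benzonase. Non-reducing SDS-PAGE immunoblot with anti-SUMO 2/3 mAb, IRDye fluorescent detection; conjugate signal normalized to total protein stain, IC50 from quantified bands.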

SAE1 (Homo sapiens (Human), UniProt Q9UBT2), sequence (Q9UBE0 whole entry): as the sequence (Q9UBE0 whole entry) above
SAE1 (Homo sapiens (Human), UniProt Q9UBT2), sequence (Q9UBT2 whole entry): as the sequence (Q9UBT2 whole entry) above

Row | SMILES | IC50 [3] | IC50 (SAE1 [1]) | IC50 (SAE1 [2])
1 | CCn1cc(-c2ccccc2[C@@H]2CN(C(=O)/C=C/C(N)C3CC3)Cc3sc(C#N)cc32)c(C(F)(F)F)n1 (stereo partly drawn) [Example 42, (4S)-6-((E)-4-amino-4-cyclopropylbut-2-enoyl)-4-(2-(1-ethyl-3-(trifluoromethyl)-1 H-pyrazol-4-yl)phenyl)-4,5,6,7-tetrahydrothieno[2,3-c]pyridine-2-carbonitrile] |  | 8390 nM | 
2 | CCn1cc(-c2ccccc2[C@@H]2CN(C(=O)/C=C/CN(C)OC)Cc3sc(C#N)cc32)c(C(F)(F)F)n1 [Example 11, (S, E)-4-(2-(1-Ethyl-3-(trifluoromethyl)-1 H-pyrazol-4-yl)phenyl)-6-(4-(methoxy(methyl)amino)but-2-enoyl)-4,5,6,7-tetrahydrothieno[2,3-c]pyridine-2-carbonitrile] |  | > 25000 nM | 
3 | CCn1cc(-c2cc(C(=O)NC)ccc2C2CN(C(=O)/C=C/CN(C)C)Cc3sc(C#N)cc32)c(C(F)(F)F)n1 (stereo not drawn) [Example 208, (E)-4-(2-Cyano-6-(4-(dimethylamino)but-2-enoyl)-4,5,6,7-tetrahydrothieno[2,3-c]pyridin-4-yl)-3-(1-ethyl-3-(trifluoromethyl)-1 H pyrazol-4-yl)-N-methylbenzamide] |  | > 25000 nM | 
4 | CCn1cc(-c2ccccc2[C@@H]2CN(C(=O)/C=C/C(N)Cc3ccccc3)Cc3sc(C#N)cc32)c(C(F)(F)F)n1 (stereo partly drawn) [Example 44, (4S)-6-((E)-4-amino-5-phenylpent-2-enoyl)-4-(2-(1-ethyl-3-(trifluoromethyl)-1 H-pyrazol-4-yl)phenyl)-4,5,6,7-tetrahydrothieno[2,3-c]pyridine-2-carbonitrile] |  | 9860 nM | 
5 | CCn1cc(-c2ccccc2[C@@H]2CN(C(=O)/C=C/[C@H](C)N(C)C)Cc3sc(C#N)cc32)c(C(F)(F)F)n1 [Example 13, (S)-6-((S, E)-4-(dimethylamino)pent-2-enoyl)-4-(2-(1-ethyl-3-(trifluoromethyl)-1 H-pyrazol-4-yl)phenyl)-4,5,6,7-tetrahydrothieno[2,3-c]pyridine-2-carbonitrile] |  | 6220 nM | 
6 | CCC(N)/C=C/C(=O)N1Cc2sc(C#N)cc2[C@H](c2ccccc2-c2cn(CC)nc2C(F)(F)F)C1 (stereo partly drawn) [Example 39, (4S)-6-((E)-4-aminohex-2-enoyl)-4-(2-(1-ethyl-3-(trifluoromethyl)-1 H-pyrazol-4-yl)phenyl)-4,5,6,7-tetrahydrothieno[2,3-c]pyridine-2-carbonitrile] |  | 8560 nM | 
7 | CCn1cc(-c2ccccc2[C@@H]2CN(C(=O)/C=C/CCNC)Cc3sc(C#N)cc32)c(C(F)(F)F)n1 [Example 45, (S, E)-4-(2-(1-ethyl-3-(trifluoromethyl)-1 H-pyrazol-4-yl)phenyl)-6-(5-(methylamino)pent-2-enoyl)-4,5,6,7-tetrahydrothieno[2,3-c]pyridine-2-carbonitrile] |  | 23200 nM | 
8 | CCC(/C=C/C(=O)N1Cc2sc(C#N)cc2[C@H](c2ccccc2-c2cn(CC)nc2C(F)(F)F)C1)N(C)C (stereo partly drawn) [Example 24, (4S)-6-((E)-4-(dimethylamino)hex-2-enoyl)-4-(2-(1-ethyl-3-(trifluoromethyl)-1 H-pyrazol-4-yl)phenyl)-4,5,6,7-tetrahydrothieno[2,3-c]pyridine-2-carbonitrile] |  | > 25000 nM | 
9 | CCn1cc(-c2c(F)cccc2[C@@H]2CN(C(=O)/C=C/[C@@H]3C[C@@H]4C[C@@H]4N3)Cc3sc(C#N)cc32)c(C(F)(F)F)n1 [Example 123, (S)-6-((E)-3-((1S,3S,5S)-2-Azabicyclo[3.1.0]hexan-3-yl)acryloyl)-4-(2-(1-ethyl-3-(trifluoromethyl)-1H pyrazol-4-yl)-3-fluorophenyl)-4,5,6,7-tetrahydrothieno[2,3-c]pyridine-2-carbonitrile] | 0.178 µM |  | 1.17 µM
10 | CCn1cc(-c2c(F)cc(F)cc2[C@@H]2CN(C(=O)/C=C/CN(C)C)Cc3sc(C#N)cc32)c(C(F)(F)F)n1 [Compound 238] | 0.844 µM |  | 1.79 µM
11 | Cc1c(C#N)sc2c1[C@H](c1cccc(F)c1-c1cn(C)nc1C(F)(F)F)CN(C(=O)/C=C/CN(C)C)C2 [Compound 220] | 0.0573 µM |  | 0.067 µM
12 | CC[C@H]1CNC(/C=C/C(=O)N2Cc3sc(C#N)cc3[C@H](c3cccc(F)c3-c3cn(CC)nc3C(F)(F)F)C2)C1 (stereo partly drawn) [Example 252, (S)-4-((S)-2-(1-ethyl-3-(trifluoromethyl)-1 H-pyrazol-4-yl)-3-fluorophenyl)-6-((E)-3-((2S,4R)-4-ethylpyrrolidin-2-yl)acryloyl)-4,5,6,7-tetrahydrothieno[2,3-c]pyridine-2-carbonitrile] | 0.288 µM |  | 0.39 µM
13 | CCn1cc(-c2c([C@@H]3CN(C(=O)/C=C/CN(C)C)Cc4sc(C#N)cc43)ccc(O)c2F)c(C(F)(F)F)n1 [Compound 240] | 0.187 µM |  | 0.81 µM
14 | CCn1cc(-c2c(Cl)cc(F)cc2C2CN(C(=O)/C=C/CN(C)C)Cc3sc(C#N)cc32)c(C(F)(F)F)n1 (stereo not drawn) [Example 186, (E)-4-(3-Chloro-2-(1-ethyl-3-(trifluoromethyl)-1 H-pyrazol-4-yl)-5-fluorophenyl)-6-(4-(dimethylamino)but-2-enoyl)-4,5,6,7-tetrahydrothieno[2,3-c]pyridine-2-carbonitrile] | 2.13 µM |  | 6.37 µM
15 | CCn1cc(-c2ccccc2[C@@H]2CN(C(=O)C#CCOC)Cc3sc(C#N)cc32)c(C(F)(F)F)n1 [Example 144, (S)-4-(2-(1-Ethyl-3-(trifluoromethyl)-1 H pyrazol-4-yl)phenyl)-6-(4-methoxybut-2-ynoyl)-4,5,6,7-tetrahydrothieno[2,3-c]pyridine-2-carbonitrile] | 0.792 µM |  | 0.54 µM

Further lines, with some results ahead:

Row | IC50 [3] | SMILES | IC50 (SAE1 [1]) | IC50 (SAE1 [2])
16 | 0.357 µM | CCn1cc(-c2ccccc2[C@@H]2CN(C(=O)/C=C/[C@H]3CC(C)(C)CN3)Cc3sc(C#N)cc32)c(C(F)(F)F)n1 [Example 82, (S)-6-((E)-3-((R)-4,4-Dimethylpyrrolidin-2-yl)acryloyl)-4-(2-(1-ethyl-3-(trifluoromethyl)-1H pyrazol-4-yl)phenyl)-4,5,6,7-tetrahydrothieno[2,3-c]pyridine-2-carbonitrile] |  | 1.08 µM
17 | 0.675 µM | CCn1cc(-c2ccccc2[C@@H]2CN(C(=O)/C=C/CNC3CC3)Cc3sc(C#N)cc32)c(C(F)(F)F)n1 [Example 102, (S, E)-6-(4-(Cyclopropylamino)but-2-enoyl)-4-(2-(1-ethyl-3-(trifluoromethyl)-1 H-pyrazol-4-yl)phenyl)-4,5,6,7-tetrahydrothieno[2,3-c]pyridine-2-carbonitrile] |  | 1.74 µM
18 | 0.226 µM | CCn1cc(-c2ccccc2[C@@H]2CN(C(=O)/C=C/C3CCCN3)Cc3sc(C#N)cc32)c(C(F)(F)F)n1 (stereo partly drawn) [Example 107, (4S)-4-(2-(1-Ethyl-3-(trifluoromethyl)-1 H-pyrazol-4-yl)phenyl)-6-((E)-3-(pyrrolidin-2-yl)acryloyl)-4,5,6,7-tetrahydrothieno[2,3-c]pyridine-2-carbonitrile] |  | 2.07 µM
19 | 0.209 µM | CCn1cc(-c2ccccc2[C@@H]2CN(C(=O)/C=C/[C@@H]3CCCN3)Cc3sc(C#N)cc32)c(C(F)(F)F)n1 [Example 112] |  | 0.76 µM
20 | 0.62 µM | CCn1cc(-c2ccccc2[C@@H]2CN(C(=O)/C=C/CNC(C)C)Cc3sc(C#N)cc32)c(C(F)(F)F)n1 [Example 105, (S,E)-4-(2-(1-Ethyl-3-(trifluoromethyl)-1 H-pyrazol-4-yl)phenyl)-6-(4-(isopropylamino)but-2-enoyl)-4,5,6,7-tetrahydrothieno[2,3-c]pyridine-2-carbonitrile] |  | 2.42 µM
21 | 0.732 µM | CCn1cc(-c2ccccc2[C@@H]2CN(C(=O)/C=C/CNC(C)(C)C)Cc3sc(C#N)cc32)c(C(F)(F)F)n1 [Example 101, (S, E)-6-(4-(tert-Butylamino)but-2-enoyl)-4-(2-(1-ethyl-3-(trifluoromethyl)-1 H-pyrazol-4-yl)phenyl)-4,5,6,7-tetrahydrothieno[2,3-c]pyridine-2-carbonitrile] |  | 2.24 µM
22 | 0.212 µM | CCn1cc(-c2ccccc2[C@@H]2CN(C(=O)/C=C/[C@@H]3C[C@H](C)CN3)Cc3sc(C#N)cc32)c(C(F)(F)F)n1 [Example 80, (S)-4-(2-(1-Ethyl-3-(trifluoromethyl)-1H pyrazol-4-yl)phenyl)-6-((E)-3-((2S,4S)-4-methylpyrrolidin-2-yl)acryloyl)-4,5,6,7-tetrahydrothieno[2,3-c]pyridine-2-carbonitrile] |  | 1.24 µM
23 | 1.78 µM | CCn1cc(-c2ccccc2[C@@H]2CN(C(=O)/C=C/CNCC(C)C)Cc3sc(C#N)cc32)c(C(F)(F)F)n1 [Example 104] |  | 2.14 µM
24 | 0.919 µM | CCn1cc(-c2c(F)cccc2[C@@H]2CN(C(=O)/C=C/C3CC(F)(F)CN3)Cc3sc(C#N)cc32)c(C(F)(F)F)n1 (stereo partly drawn) [Example 253, (S)-6-((E)-3-((S)-4,4-difluoropyrrolidin-2-yl)acryloyl)-4-((S)-2-(1-ethyl-3-(trifluoromethyl)-1 H-pyrazol-4-yl)-3-fluorophenyl)-4,5,6,7-tetrahydrothieno[2,3-c]pyridine-2-carbonitrile 2,2,2-trifluoroacetate] |  | 2.92 µM
25 | 14.1 µM | CCn1cc(-c2ccccc2[C@@H]2CN(C(=O)/C=C/CN3CCC(C(=O)O)C3)Cc3sc(C#N)cc32)c(C(F)(F)F)n1 (stereo partly drawn) [Example 5, 1-((E)-4-((S)-2-Cyano-4-(2-(1-ethyl-3-(trifluoromethyl)-1 H-pyrazol-4-yl)phenyl)-4,7-dihydrothieno[2,3-c]pyridin-6(5H)-yl)-4-oxobut-2-en-1-yl)pyrrolidine-3-carboxylic acid] |  | 10.3 µM
